# Assay results published in patent USRE47689E1, “Compounds for treating spinal muscular atrophy” (PTC Therapeutics, Inc., priority 2011, dated 2019).
# System: Smn protein
# Experiment: Smn protein in tissues of neonatal Δ7 SMA mice
# Type: in vivo, mouse
# Details: neonatal SMA Δ7 homozygous knockout mice; brain, spinal cord, muscle; IP QD from PND 3 to day 9
# Protocol: Protocol. The tissue samples in Safe-Lock tubes are weighed and the volume of RIPA buffer containing the protease inhibitor cocktail is added based on the weight to volume ratios for each type of tissue: Brain (50 mg/mL), Muscle (50 mg/mL) and Spinal Cord (25 mg/mL).
# Tissues are homogenized using the TissueLyzer by bead milling. 5 mm stainless steel beads are added to the sample and shaken vigorously for 5 minutes at 30 Hz in the TissueLyzer. The samples are then centrifuged for 20 minutes at 14,000×g in a microcentrifuge and the homogenates transferred to the PCR plate. The homogenates are diluted in RIPA buffer to approximately 1 mg/mL for HTRF and approximately 0.5 mg/mL for total protein measurement using the BCA protein assay. […] Fluorescence for each well of the plate at 665 nm and 620 nm is measured on an EnVision multilabel plate reader (Perkin-Elmer). The total protein in the tissue homogenate is measured using the BCA assay according to the manufacturer's protocol.
# The normalized fluorescence signal is calculated for each sample, Blank and vehicle control well by dividing the signal at 665 nm by the signal at 620 nm. Normalizing the signal accounts for possible fluorescence quenching due to the matrix effect of the tissue homogenate. […] The ΔF value for each tissue sample well is divided by the total protein quantity (determined using the BCA assay) for that tissue sample. […]
row,Compound,total protein normalized Smn level
1,"CC(C)NCCc1ccc2cc(-c3nc4c(Cl)cccc4s3)c(=O)oc2c1 [Cpd 35, 3-(4-chloro-1,3-benzothiazol-2-yl)-7-[2-(propan-2-ylamino)ethyl]-2H-chromen-2-one]",dose dependently increased
2,"CCN1CCN(c2ccc3cc(-c4cn5cc(C)nc(C)c5n4)c(=O)oc3c2)C[C@@H]1C [Cpd 626, 3-(6,8-dimethylimidazo[1,2-a]pyrazin-2-yl)-7-[(3S)-4-ethyl-3-methylpiperazin-1-yl]-2H-chromen-2-one]",dose dependently increased
